# Reference: the supplement of paper PMC10307832
# Tests used:
# Assay in all cases: relative viability (nuclei count vs DMSO), 5 days (fraction); higher = more cells survive
# [1] = compound: CS(=O)(=O)N1CCN(Cc2cc3nc(-c4cccc5[nH]ncc45)nc(N4CCOCC4)c3s2)CC1 [Pictilisib] + Nc1ncn([C@H]2C[C@H](O)[C@@H](CO)O2)c(=O)n1 [Decitabine] (partner 2 µM)
# Method in brief: (§1)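 Values are medians from duplicate plates. Each reflects relative viability, defined as the nuclei count of treated wells over that of vehicle wells. Lung cancer cell lines in 1536-well plates were pin-tool dosed one day after seeding with one drug alone or with a fixed anchor-drug dose plus five library-drug doses (not always all listed) in √10 steps, then fixed, stained and imaged at 4× after 5 days.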
# [2] = compound: CS(=O)(=O)N1CCN(Cc2cc3nc(-c4cccc5[nH]ncc45)nc(N4CCOCC4)c3s2)CC1 [Pictilisib] + CC(=O)Nc1cccc(-n2c(=O)n(C3CC3)c(=O)c3c(Nc4ccc(I)cc4F)n(C)c(=O)c(C)c32)c1 [Trametinib] (partner 0.02 µM)
# Method in brief: as §1
# [3] = compound: CS(=O)(=O)N1CCN(Cc2cc3nc(-c4cccc5[nH]ncc45)nc(N4CCOCC4)c3s2)CC1 [Pictilisib] + C[C@@H](Oc1cc(-c2cnn(C3CCNCC3)c2)cnc1N)c1c(Cl)ccc(F)c1Cl [Crizotinib] (partner 1 µM)
# Method in brief: as §1
# [4] = compound: CS(=O)(=O)N1CCN(Cc2cc3nc(-c4cccc5[nH]ncc45)nc(N4CCOCC4)c3s2)CC1 [Pictilisib] + CCNC(=O)c1noc(-c2cc(C(C)C)c(O)cc2O)c1-c1ccc(CN2CCOCC2)cc1 [Luminespib] (partner 0.01 µM)
# Method in brief: as §1
# [5] = compound: NC1(c2ccc(-c3nc4ccn5c(=O)[nH]nc5c4cc3-c3ccccc3)cc2)CCC1 [MK-2206] + COc1cccc2cc(-c3nc([C@H]4CC[C@H](C(=O)O)CC4)n4ncnc(N)c34)[nH]c12 [OSI-027] (partner 0.5 µM)
# Method in brief: as §1
Cell Line,relative viability ([1]; first compound 0.02 µM),relative viability ([1]; first compound 0.06325 µM),relative viability ([1]; first compound 0.6325 µM),relative viability ([1]; first compound 2 µM),relative viability ([2]; first compound 0.02 µM),relative viability ([2]; first compound 0.06325 µM),relative viability ([2]; first compound 0.6325 µM),relative viability ([2]; first compound 2 µM),relative viability ([3]; first compound 0.02 µM),relative viability ([3]; first compound 0.06325 µM),relative viability ([3]; first compound 0.6325 µM),relative viability ([3]; first compound 2 µM),relative viability ([4]; first compound 0.02 µM),relative viability ([4]; first compound 0.06325 µM),relative viability ([4]; first compound 0.6325 µM),relative viability ([4]; first compound 2 µM),relative viability ([5]; first compound 0.01 µM),relative viability ([5]; first compound 0.03162 µM),relative viability ([5]; first compound 0.3162 µM),relative viability ([5]; first compound 1 µM)
NCI-H2023,0.211,0.2,0.215,0.148,0.52,0.404,0.315,0.172,0.513,0.533,0.331,0.201,0.936,0.753,0.286,0.103,0.407,0.366,0.208,0.227
Calu-6,,,,,,,,,0.751,0.969,0.728,0.582,,,,,,,,
SW 900,0.367,0.524,0.45,0.418,0.899,0.753,0.683,0.364,,,,,0.183,0.15,0.163,0.158,0.728,0.542,0.416,0.481
HOP-62,0.215,0.283,0.267,0.329,0.396,0.356,0.332,0.178,1.07,0.972,1.01,0.671,1.01,0.906,0.803,0.874,0.808,0.808,0.74,0.828
H3255,0.667,0.521,0.466,0.342,0.611,0.556,0.394,0.243,0.854,0.907,0.803,0.555,0.922,0.796,0.688,0.666,0.635,0.624,0.481,0.413
NCI-H1734,0.472,0.481,0.418,0.338,0.692,0.717,0.499,0.315,0.739,0.648,0.43,0.296,0.174,0.179,0.164,0.171,0.603,0.572,0.366,0.356
SK-MES-1,0.351,0.388,0.359,0.339,0.537,0.434,0.331,0.226,1.04,0.971,0.804,0.492,0.748,0.702,0.279,0.219,0.62,0.502,0.452,0.504
NCI-H1792,0.509,0.592,0.491,0.22,0.505,0.346,0.305,0.102,0.916,0.925,0.772,0.425,0.366,0.41,0.25,0.225,0.718,0.824,0.686,0.622
EKVX,0.318,0.334,0.249,0.195,0.424,0.287,0.268,0.193,0.898,1.15,0.801,0.493,0.875,0.942,0.833,0.408,0.777,0.707,0.646,0.59
EPLC-272H,0.428,0.371,0.319,0.171,0.275,0.278,0.212,0.126,0.995,0.993,0.702,0.72,0.213,0.424,0.184,0.207,0.31,0.259,0.26,0.266
LK-2,0.238,0.302,0.197,0.163,0.738,0.654,0.558,0.257,0.251,0.23,0.239,0.23,0.198,0.144,0.152,0.188,0.179,0.199,0.181,0.151
CAL-12T,,,,,0.332,0.331,0.221,0.178,0.615,0.893,0.704,0.471,0.452,0.249,0.339,0.143,0.67,0.554,0.452,0.485
NCI-H322M,0.735,0.696,0.656,0.43,0.516,0.529,0.407,0.394,0.834,0.936,0.878,0.834,0.857,0.763,0.511,0.263,0.484,0.49,0.386,0.377
NCI-H1650,0.41,0.39,0.438,0.432,0.595,0.662,0.506,0.382,1.02,1.1,1.2,0.395,0.224,0.175,0.201,0.207,0.58,0.66,0.488,0.39
NCI-H2342,0.736,0.672,0.688,0.445,0.77,0.747,0.724,0.476,,,,,0.669,0.586,0.588,0.365,0.649,0.614,0.555,0.484
SW 1573,0.688,0.587,0.354,0.285,0.563,0.473,0.379,0.239,0.817,0.791,0.626,0.268,0.185,0.196,0.187,0.189,0.628,0.491,0.298,0.423
NCI-H2405,0.765,0.72,0.571,0.388,0.719,0.515,0.355,0.254,0.884,0.854,0.745,0.558,0.694,0.611,0.416,0.235,0.661,0.641,0.56,0.452
LCLC-103H,0.705,0.77,0.55,0.617,0.649,0.711,0.501,0.558,1.05,1.04,0.882,0.71,0.989,0.903,0.606,0.438,0.476,0.459,0.445,0.408
HCC-44,0.92,0.958,0.926,0.94,0.896,1.03,1.01,0.643,0.781,0.783,0.882,0.455,1.11,1.01,0.54,0.344,0.496,0.441,0.472,0.205

Cell Line,relative viability ([1]; first compound 0.02 µM),relative viability ([1]; first compound 0.06325 µM),relative viability ([1]; first compound 0.6325 µM),relative viability ([1]; first compound 2 µM),relative viability ([2]; first compound 0.02 µM),relative viability ([2]; first compound 0.06325 µM),relative viability ([2]; first compound 0.6325 µM),relative viability ([2]; first compound 2 µM),relative viability ([3]; first compound 0.02 µM),relative viability ([3]; first compound 0.06325 µM),relative viability ([3]; first compound 0.6325 µM),relative viability ([3]; first compound 2 µM),relative viability ([4]; first compound 0.02 µM),relative viability ([4]; first compound 0.06325 µM),relative viability ([4]; first compound 0.6325 µM),relative viability ([4]; first compound 2 µM),relative viability ([5]; first compound 0.01 µM),relative viability ([5]; first compound 0.03162 µM),relative viability ([5]; first compound 0.3162 µM),relative viability ([5]; first compound 1 µM)
RERF-LC-KJ,0.711,0.618,0.54,0.479,0.828,0.859,0.708,0.56,0.845,0.875,0.816,0.635,1.23,1.29,1,0.855,0.647,0.531,0.417,0.381
NCI-H1975,0.385,0.377,0.329,0.257,0.326,0.369,0.194,0.142,0.915,0.9,0.713,0.307,0.19,0.172,0.142,0.136,0.745,0.611,0.42,0.381
IA-LM,,,,,,,,,0.649,0.75,0.628,0.534,,,,,,,,
LCLC-97TM1,0.244,0.238,0.169,0.18,0.204,0.226,0.142,0.0739,0.236,0.277,0.317,0.159,0.751,0.867,0.442,0.224,0.698,0.498,0.249,0.361
NCI-H520,0.492,0.478,0.237,0.168,0.57,0.64,0.215,0.14,0.826,0.884,0.504,0.197,0.212,0.221,0.223,0.217,0.243,0.233,0.17,0.238
ABC-1,1.16,1.19,1.07,0.703,,,,,0.96,1.2,1.2,0.507,0.514,0.583,0.394,0.545,0.552,0.494,0.381,0.379
NCI-H1395,0.708,0.798,0.652,0.5,1.03,1.03,0.866,0.477,,,,,0.704,0.838,0.748,0.534,0.699,0.588,0.437,0.471
EBC-1,,,,,,,,,0.205,0.211,0.213,0.175,,,,,,,,
NCI-H2228,,,,,0.391,0.519,0.199,0.148,0.437,0.473,0.311,0.168,0.12,0.184,0.129,0.121,0.69,0.446,0.271,0.214
A549,0.256,0.289,0.259,0.22,,,,,0.694,0.729,0.436,0.199,,,,,,,,
NCI-H1563,,,,,,,,,0.924,0.889,0.761,0.581,0.44,0.513,0.497,0.468,0.756,0.727,0.626,0.6
NCI-H1703,,,,,,,,,0.532,0.666,0.261,0.178,,,,,,,,
NCI-H1299,,,,,,,,,0.99,1.03,1.05,0.933,,,,,,,,
HCC-366,0.335,0.304,0.194,0.114,0.374,0.2,0.157,0.0661,0.493,0.697,0.251,0.0577,,,,,0.927,0.962,0.569,0.44
NCI-H522,0.66,0.609,0.657,0.607,0.884,0.721,0.572,0.43,,,,,1.01,0.939,0.894,0.788,0.867,0.726,0.615,0.631
NCI-H1648,0.528,0.469,0.367,0.319,0.363,0.401,0.236,0.222,,,,,,,,,0.256,0.246,0.279,0.251
NCI-H1793,0.436,0.518,0.343,0.239,0.397,0.448,0.332,0.211,,,,,0.152,0.189,0.152,0.168,0.274,0.288,0.229,0.199
NCI-H1623,,,,,,,,,,,,,0.452,0.455,0.379,0.303,0.44,0.426,0.411,0.355
HCC-78,0.604,0.607,0.6,0.402,0.681,0.561,0.404,0.281,0.321,0.305,0.222,0.18,,,,,0.394,,0.351,0.285
